In article doi:10.1101/705459v3 (bioRxiv, 2019):
Entries after “also recorded” stand apart in the source; their conditions may differ. Peptide text beside a SMILES is read from it.

Key:
CMG2 = CMG2 (Homo sapiens, UniProt P58335, C175A/R40C); experiment: biochemical; type: binding; settings: for koff: read-out: off-rate / koff (BLI)
TEM8 = TEM8 (Homo sapiens, UniProt Q9H6X2); type: binding; settings: 250nM mCitrine-TEM8, 325nM PA-546; S16 313 nM to 40 μM
EOMA cells [1] = type: cell-based, murine
EOMA cells [2] = type: cell-based, murine; settings: n=3
EA.hy926 cells = type: cell-based, human

Sequence of CMG2 (P58335 40-217 R40C/C175A limits assumed): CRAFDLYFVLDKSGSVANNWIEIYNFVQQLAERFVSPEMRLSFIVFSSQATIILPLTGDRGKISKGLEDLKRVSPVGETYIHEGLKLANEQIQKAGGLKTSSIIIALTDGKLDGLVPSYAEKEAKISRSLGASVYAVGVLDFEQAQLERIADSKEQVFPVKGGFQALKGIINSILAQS
Sequence of TEM8 (Q9H6X2 44-215 limits assumed): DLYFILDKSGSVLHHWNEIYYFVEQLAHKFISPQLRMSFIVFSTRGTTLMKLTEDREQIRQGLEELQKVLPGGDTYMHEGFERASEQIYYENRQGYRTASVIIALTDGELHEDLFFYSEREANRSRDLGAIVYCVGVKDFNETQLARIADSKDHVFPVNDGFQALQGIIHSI

| Molecule | S16 binding to CMG2 in EDTA (BLI) (CMG2; 10 mM EDTA instead of 2 mM CaCl2 and 1 mM MgCl2, 10 µM S16, n=3) | on-rate (BLI) (CMG2; 1:1 model) | binding on BLI of S16 prepared to encourage monomerization (CMG2; S16 prepared in a fashion that encourages monomerization) | koff (CMG2) [s⁻¹] | S16 binding to CMG2 sensors treated with PA before S16 (BLI) (CMG2; sensors equilibrated with 500 nM PA, then 10 µM S16, n=3) | inhibition of TEM8-PA FRET (TEM8) | proliferation relative to untreated control (EOMA cells [1]) | reduction in wound closure (EOMA cells [2]) [%] | reduction of migration toward serum (EA.hy926 cells) | kon (BLI) (CMG2; representative fit) [M/s] | binding of CMG2 (BLI), in words (CMG2; concentrations up to 30 μM, 3 independent experiments, no binding model fits) | directional migration versus vehicle (EA.hy926 cells) |
| --- | --- | --- | --- | --- | --- | --- | --- | --- | --- | --- | --- | --- |
| CC[C@H](C)[C@H](NC(=O)[C@H](C)NC(=O)[C@@H](NC(=O)[C@H](C)NC(=O)[C@@H]1CCCN1)[C@@H](C)CC)C(=O)N[C@@H](C)C(=O)N[C@H](C(=O)N[C@@H](Cc1c[nH]cn1)C(=O)N[C@@H](CO)C(=O)N[C@@H](CCC(N)=O)C(=O)N[C@@H](CC(=O)O)C(=O)N[C@H](C(=O)N[C@@H](CO)C(=O)N[C@H](C(=O)N1CCC[C@H]1C(=O)O)[C@@H](C)CC)C(C)C)C(C)C [Peptide S16] (H-PAIAIAVHSQDVSIP-OH; N-terminus and C-terminus assumed) | prevents S16 binding | ≈ 2 × 10^2 M^−1s^−1 | binding is not observed | ~0.0001 | reduced | negligible; also recorded: unable to compete | no change in proliferation | 60 | ~ 90% | – | – | – |
| CC[C@H](C)[C@H](NC(=O)[C@H](CO)NC(=O)[C@@H](N)C(C)C)C(=O)NCC(=O)N[C@@H](Cc1ccc(O)cc1)C(=O)N[C@@H](CC(C)C)C(=O)N[C@@H](CC(C)C)C(=O)N[C@H](C(=O)N[C@@H](CCCCN)C(=O)N[C@@H](Cc1c[nH]cn1)C(=O)N[C@@H](CO)C(=O)N[C@@H](CCC(N)=O)C(=O)N[C@H](C(=O)N[C@@H](CC(=O)O)C(=O)N[C@@H](CCC(N)=O)C(=O)O)[C@@H](C)O)C(C)C [Peptide U12] (H-VSIGYLLVKHSQTDQ-OH; N-terminus and C-terminus assumed) | – | – | – | 0.0125 ± 0.0002 | – | – | – | – | – | 150 ± 10 | – | – |
| SPIAVDVQSAPIHAI [scrambled S16, reference compound] | – | – | – | – | – | – | – | – | – | – | minimal binding | no significant difference |
